The text below walks through data of patent US9891212B2, “Screening method, a kit, a method of treatment and a compound for use in a method of treatment” (ATROGI AB, priority 2013, dated 2018).

Assay [1] concerns L6-myotubes. The assay can be described thus: 3H-2-deoxy-glucose uptake in L6-myotubes. The assay is classed as cell-based. Conditions: for glucose uptake, isoprenaline versus BRL 37344: 2 h stimulation with 10^-5 M, n=7, FIG. 9. As to the method: Glucose uptake was measured in L6-myotubes grown in 12-well plates using ^3H-2-dexoy-glucose as previously described (Nevzorova et al. 2002) with minor modifications. L6-cells were differentiated for 7-8 days before the experiment, serum-starved over night in media containing 0.5% fatty-acid free BSA and stimulated with BRL 373 44 or Isoprenaline totally 2 h, unless otherwise stated. SQ 22 536 or ICI 118 551 were added 30 min before stimulation. 25 min before the end of the experiment, cells were washed twice in warm PBS and kept in glucose-free DMEM together with the different drugs for 10 min before 50 nM ^3H-2-deoxy-glucose was added for additional 6 minutes. The reaction was terminated by washing the cells in ice-cold PBS three times. Cells were lysed in 0.2 NaOH for 1 h in 60° C. and the radioactivity detected by liquid scintillation (scintillation buffer Emulsifier Safe, Perking Elmer and analysis is a Tri-Carb® 2800TR from Perkin Elmer).

In assay [2] the test system is β3-KO mice. In words: in vivo 3H-2-deoxy-glucose uptake in soleus and gastrocnemius muscle. The conditions noted are these: 1 mg/kg i.p., CPM per gram tissue divided by CPM per gram blood, FIG. 14. As to the method: β3-KO mice on FVB background, 12-16 weeks old, were anaesthetised with pentobarbital (67 mg/kg). BRL 37344 (1 mg/kg) or saline was injected i.p. about 10 min after induction of anaesthesia. After 20 min ^3H-2-deoxy-glucose (16 nM/130 μCi per kg of mouse) diluted in 100 μl saline was injected. Mice were killed 1 h after injection of 2-deoxy-glucose. Blood sample was taken from heart and soleus and gastrocnemius were dissected out. Tissues were weighed and dissolved in 0.5 M NaOH in 60° C. Radioactivity was detected as described above. The results are expressed as CPM per gram tissue divided by CPM per gram blood.

Another assay deals with L6 skeletal muscle cells. In words: cAMP levels in L6 skeletal muscle cells (alpha-screen cAMP kit). Type of assay: cell-based. As to the method: L6 myocytes were obtained from ATCC and grown in Dulbecco's Modified Eagle's Medium (DMEM) containing 4.5 g/L glucose supplemented with 10% fetal bovine serum (FBS), 2 mM L-Glutamine, 50 U/ml penicillin, 50 μg/ml streptomycin and 10 mM HEPES. Cells were plated in 12- or 96-well plates and after reaching confluence differentiation was induces by differentiation media containing 2% FBS.
L6-cells were differentiated in 96-well plates and after 7 days of differentiation cells serum-starved and treated with drugs in stimulation buffer (HBSS supplemented with 1% BSA and 5 mM HEPES, pH 7.4). To end the reaction cells were harvested in ice-cold lysis buffer (0.3% Tween-20, 5 mM Hepes, 1% BSA and 1 mM IBMX, pH 7.4). Levels of cAMP were detected by an alpha-screen cAMP kit (6760625R from Perkin Elmer) according to the manufactures instruction.
The cAMP was measured in L6-myotubes after 2 h stimulation. The results (FIG. 3) indicate that BRL 37344 cannot be considered a general beta2-adrenergic receptor agonist (or beta1-adrenergic receptor) stimulating cAMP in skeletal muscle cells.
Background: cAMP levels reflect the balance of adenylyl cyclase and phosphodiesterase activity.

In assay [3] the test system is β3-KO mice. The assay can be described thus: blood glucose over time (glucose tolerance). Type of assay: in vivo. Conditions: 1 mg per kg i.p., FIG. 15. As to the method:
FIG. 15 is a graph showing variation over time of blood glucose (in mM) in β3-KO mice after ip injection of either saline or BRL 37344 (1 mg per kg). P<0.01 for the effect of BRL 37344 with two-way ANOVA.

Another assay has as its system GLUT4. The assay can be described thus: GLUT4 translocation to the plasma membrane in L6 cells (immunofluorescence). Type of assay: cell-based. Conditions: 2 h stimulation, FIGS. 12 and 13. As to the method:
L6 cells were grown in 8-well culture chamber slides (BD Biosciences, Franklin Lakes, BJ), serum starved overnight and stimulated with insulin, isoproterenol or BRL 37344 for 2 h. Cells were fixed for 5 min with 4% formaldehyde in PBS, quenched with 50 mM glycine in PBS for 10 min, blocked with 5% BSA in PBS and incubated with primary antibodies (diluted in 1.5% BSA in PBS) overnight at 4° C. As primary antibody anti GLUT4 binding to extracellular parts of GLUT4 (Santa Cruz Biotechnology, sc-1606, dilution 1:125) was used. Cells were then washed with PBS and incubated with Alexa Fluor® 488-conjugated goat anti-rabbit IgG (1:500 dilution, 1.5% BSA in PBS) for 1 h. Slides were mounted with ProLong® Gold antifade reagent (Invitrogen) and fluorescence micrographs were obtained (FIG. 12).

The subject of assay [4] is L6-myotubes. The assay can be described thus: western blot for detection of phospho-CREB in L6-myotubes. Type of assay: cell-based. The conditions noted are these: 10^-5 M, 10 to 120 min, FIGS. 5 and 6. As to the method:
L6-myotubes were harvested and subjected to western blot for detection of phospho-CREB. For measuring protein phosphorylation of a target downstream cAMP cells were treated as indicated and harvested in pre-warmed SDS sample buffer containing 50 mM dithiothreitol, sonicated and boiled for 5 min. Proteins were separated on a 12% polyacrylamide gel for 3 h at 80 V. The proteins were transferred onto Hypbond-P PVDF membrane (GE Healthcare) which was blocked in milk for 1 h and probed with primary antibodies. All antibodies were purchased from Cell Signaling and diluted 1:1000: Primary antibodies were detected using a secondary antibody (horseradish peroxidase-linked anti-rabbit IgG, #7074) diluted 1:2000 and enhanced chemiluminescence (ECL plus, GE Healthcare). Photos were taken in a CCD camera (Fuji Las 1000) and quantification performed in software ImageJ.
Lanes 1 and 7=basal, 2-6=isoprenaline treatment for 10, 15, 30, 60 and 120 min, 8-12=BRL 37344 treatment for 10, 15, 30, 60 and 120 min. […] Quantification of n=3 blots (FIG. 6).
In general terms: Immunoblotting shows a protein as a band on a membrane.

Regarding `CC(C)NCC(O)c1ccc(O)c(O)c1` (racemic) [isoprenaline, (RS)-4-[1-hydroxy-2-(isopropylamino)ethyl]benzene-1,2-diol], the “glucose uptake, isoprenaline versus BRL 37344” value in the assay with L6-myotubes [1] is recorded as “no significant difference between the responses”.
In the case of `C[C@H](Cc1ccc(OCC(=O)O)cc1)NC[C@H](O)c1cccc(Cl)c1` (relative stereo) [BRL 37344, (±)-(R*,R*)-[4-[2-[[2-(3-chlorophenyl)-2-hydroxyethyl]amino]propyl]phenoxy]acetic acid], the “glucose uptake in both skeletal muscles relative to control mice” value with β3-KO mice [2] was 2-3 times higher. Besides, in the assay with L6 skeletal muscle cells (L6-myotubes, 2 h stimulation, FIG. 3), the “cAMP levels at different concentrations” value was “no or little impact on cAMP levels”. Besides, in the assay with L6 skeletal muscle cells (L6 skeletal muscle cells, 0 min to 25 min of contact, FIG. 2), the “cAMP at time points examined” value was “At no time point examined did BRL 37344 increase cAMP”. The cAMP over basal entry with L6 skeletal muscle cells (L6 skeletal muscle cells, FIG. 1) is recorded as “did not significantly increase cAMP over basal”. The “maximum blood glucose compared to control mice” value with β3-KO mice [3] is “substantially reduced”. Also, the “glucose uptake, isoprenaline versus BRL 37344” value with L6-myotubes [1] was “no significant difference between the responses”. Besides, the “BRL 37344 stimulated glucose uptake with beta2 inhibition” value in the assay on L6-myotubes [1] (BRL 37344 10 μM, 2 h, in presence of 10 μM ICI 118551, FIG. 11) is “fully inhibits”. Also, the “glucose uptake at different concentrations” value in the assay with L6-myotubes [1] (L6-myotubes, 2 h stimulation, n=7, FIG. 8) is “increases glucose uptake”. For the same compound, the “glucose uptake at different time points” value with L6-myotubes [1] (L6-myotubes, BRL 37344 10 μM, FIG. 7) is “increases during time”. In addition, the “BRL 37344 stimulated glucose uptake with inhibition of adenylyl cyclase” value in the assay with L6-myotubes [1] (SQ 22536 500 μM added 30 min before stimulation, FIG. 10) is listed as “does not decrease”. In addition, in the assay on GLUT4, the “GLUT4 translocation to the plasma membrane” value is “increase of GLUT4 translocation to the plasma membrane”. Further, in the assay with L6-myotubes [4], the “phospho-CREB (downstream target of cAMP)” value was “not affected”.
